The text below walks through data of patent publication US7468462B2, “Therapeutic agents for the treatment of cancer, metabolic diseases and skin disorders” (Auspex Pharmaceuticals, priority 2004, dated 2008).

The assay addresses T1, RAR-α (Homo sapiens, UniProt P10276).
T1 construct: The Plasmid pGEG-hRAR-α for full-length RAR-α expression; made in house; host or cells: E. coli BL21 (DE3)
T1 sequence (P10276 1-462): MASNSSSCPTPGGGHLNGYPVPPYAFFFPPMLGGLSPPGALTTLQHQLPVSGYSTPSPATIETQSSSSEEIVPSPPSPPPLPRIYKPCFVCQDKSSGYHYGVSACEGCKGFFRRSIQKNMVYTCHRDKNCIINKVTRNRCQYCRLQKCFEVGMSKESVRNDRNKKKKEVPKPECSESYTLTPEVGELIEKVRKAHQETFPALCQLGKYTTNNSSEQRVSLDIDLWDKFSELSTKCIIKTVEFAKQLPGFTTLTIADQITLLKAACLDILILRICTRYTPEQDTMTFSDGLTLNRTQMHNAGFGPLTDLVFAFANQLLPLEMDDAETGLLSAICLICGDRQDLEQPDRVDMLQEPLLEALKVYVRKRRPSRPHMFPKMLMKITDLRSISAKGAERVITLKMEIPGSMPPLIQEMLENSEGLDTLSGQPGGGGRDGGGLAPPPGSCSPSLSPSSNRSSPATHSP
As to the kind of experiment: Competitive radioligand (tritium labeled tRA) hydroxylapatite binding assay in E. coli expressed RAR-α. The settings on record: read-out: Kd (mircomolar). The procedure: After correcting for non-specific binding, IC50 values were determined.

For `COc1ccc(-c2ccc3cc(C(=O)O)ccc3c2)cc1C12CC3CC(CC(C3)C1)C2` [Adapalene], the dissociation constant (Kd) turned out to be 0.3 µM. Consider `COc1ccc(-c2ccc3cc(C4=C(O)CCC4=O)ccc3c2)cc1C12CC3CC(CC(C3)C1)C2` [Example 8, 2-[6-(3-Adamantan-1-yl-4-methoxyphenyl)-naphthalen-2-yl]-3-hydroxy-cyclopent-2-enone], for which the Kd is 16 µM.

One may read the Kd as a measure of binding affinity in units of concentration.
